Reference: US4368194A, “Pharmacologically active amine boranes” (The United States of America as represented by the …, priority 1981, dated 1983)
Where two headings read alike, the source gives them in different places.

Columns and labels:
liver mitochondria [1] = assay: Oxidative phosphorylation, succinate as substrate; format: biochemical, rats; conditions: 5 μmoles; for Oxidative Phosphorylation Succinate State 3: ADP stimulated respiration; for Oxidative Phosphorylation Succinate State 4: basal respiration
Method: (§1) Basal and adenosine diphosphate stimulated respiration on 10% liver homogenates was measured using succinate or αketoglutarate as substrate. See Glatt, et al., supra. The reaction vessel contained sucrose 55μ moles, KCl 22μ moles, K2 HPO4 22μ moles, test compounds at 5μ moles in 1% CMC and sodium succinate 90μ moles or αketoglutarate 60μ moles in a total volume of 1.8 ml. […] The rate of respiration was calculated at μl of O2 consumed/hr/mg wet weight of liver.

CF1 male mice = assay: Writhing reflex (acetic acid); format: in vivo; conditions: for Writhing Reflex: 20 mg/kg intraperitoneally, mice
Method: CF1 male mice were administered test drugs at 20 mg/kg intraperitoneally 20 min (see Hendershat et al., J. Pharmacol Exp. Ther. 125, 237 1959) prior to the administration of 0.5 ml of 0.6% acetic acid (Vingar et al., European J. PHarmacol, 37, 23 1976). After 5 min the number of stretches, characterized by repeated contractures of the abdominal musculature accompanied by extension of the hind limbs, was counted for the next 10 min. The control mice had 78 stretch reflexes per 10 min.

liver mitochondria [2] = assay: Oxidative phosphorylation, α-ketoglutarate as substrate; format: biochemical, rats; conditions: 5 μmoles; for Oxidative Phosphorylation α Ketoglutarate State 3: ADP stimulated respiration; for Oxidative Phosphorylation α Ketoglutarate State 4: basal respiration
Method: as §1

in vivo = conditions: mouse
Cathepsin [3] = assay: Lysosomal free cathepsin activity, PMNs; format: cell-based; conditions: 5 μmoles; for PMNs % Free Cathespin Activity, pH5: in vitro, 60 min
Method: (§2) Polymorphonuclear neutrophils (PMNs) were collected from the peritoneal cavity four hr after the injection of 35 ml of 0.5% oyster glycogen in isotonic saline (Orange et al., J. Exp. Med., 127, 767 1968). The PMNs were centrifuged down at 800 g for 20 min, washed, and resuspended in minumen essential medium (MEM) with 10% fetal calf serum pH 7.4.
(§3) Acid phosphatase activity (Gianetto et al., Biochem J., 59, 433 1955) was carried out by incubating with 0.1 Mβ-glycerol phosphate in 0.1 M acetate, pH 5.0 with 5 μmoles of test drugs in 1% carboxymethylcellulose (CMC) for 20 min with liver homogenate and 60 min with resuspended PMNs. Lysosome enzymes were released by 0.02% alkyl phenoxy polyethoxy ethanol-100 to obtain the total enzymatic activity. The reaction was stopped with 10% trichloroacetic acid and the solution centrifuged. Aliquots of the supernatant were assayed for inorganic phophate content by the method of Chen et al., Anal Chem., 28, 1756 (1956). Percent free acid phosphatase was calculated. Cathepsin activity was determined in an analagous manner except the substrate used was 2% azocasein (Schleuning et al., Methods in Enzymology, XLV, 330 1976) in 0.1 M acetate buffer pH 5.0. The supernatant was assayed for acid soluble peptide fragments at 366 nm. Percent free cathepsin activity was calculated.

[4] = system: carrageenan induced edema in mouse foot pads; assay: Anti-inflammatory screen (carrageenan induced foot edema); format: in vivo, mice; conditions: for Anti-inflammatory Screen: mice
Method: CF1 male mice (about 30 g) were administered test drugs at 10 mg/kg in 0.05% polysorbate .80-water intraperitoneally 3 hr and 30 min prior to 0.05 ml of 2% carrageenan in 0.9% saline injected into the plantar surface of the right hind foot. Saline injected into the left hind foot served as a base line. After 3 hr, both feet were excised at the tibiotarsal (ankle) joint according to the modified (Roszkowski et al., J. Pharm. Exp. Ther., 179, 114 1971) method of Winter, resulting in an 87 mg net increase in the weight of the control animals' feet.

[5] = biological target: T1, prostaglandin synthetase from beef seminal vesicle (Bos taurus, UniProt O62664); assay: Prostaglandin synthetase activity; format: biochemical; conditions: 1 h; 10^-6 M; read-out: Prostaglandin Synthesis
T1 construct: purchased; host or cells: beef seminal vesicle
T1 sequence (O62664 25-600): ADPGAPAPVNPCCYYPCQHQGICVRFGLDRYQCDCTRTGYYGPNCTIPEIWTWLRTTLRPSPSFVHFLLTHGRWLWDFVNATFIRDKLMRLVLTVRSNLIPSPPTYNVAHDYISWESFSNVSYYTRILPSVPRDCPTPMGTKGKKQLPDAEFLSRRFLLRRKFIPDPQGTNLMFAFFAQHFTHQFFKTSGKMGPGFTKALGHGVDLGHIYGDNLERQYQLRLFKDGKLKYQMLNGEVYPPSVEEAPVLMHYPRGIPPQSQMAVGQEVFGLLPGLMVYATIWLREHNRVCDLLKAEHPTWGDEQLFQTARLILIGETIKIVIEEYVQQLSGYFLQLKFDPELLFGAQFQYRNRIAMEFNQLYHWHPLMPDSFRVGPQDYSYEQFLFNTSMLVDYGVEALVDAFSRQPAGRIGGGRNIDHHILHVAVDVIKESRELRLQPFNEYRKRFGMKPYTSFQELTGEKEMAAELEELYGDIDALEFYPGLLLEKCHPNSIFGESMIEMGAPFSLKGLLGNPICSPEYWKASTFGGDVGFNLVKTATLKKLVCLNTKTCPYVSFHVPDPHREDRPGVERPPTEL
Method: After 1 hr at 37° C. the reaction was stopped with 1 N HCl and extracted with ethyl ether and evaporated. […] The plates were dried and developed in iodine vapor and with the use of prostaglandin standards the appropriate areas were scraped and counted for ^3 H content. Indometacin was used as a standard at 10^-4 M concentration. Test drugs were used at 10^-6 M.

Cathepsin [6] = assay: Lysosomal free cathepsin activity, liver homogenate; format: biochemical, rats; conditions: 5 μmoles, in vitro; 20 min
Method: (§4) Lysosomal enzymatic assays - Sprague Dawley rats (about 160 g) were sacrificed, the liver excised, and a 10% homogenate (4x) in 0.25 M sucrose and 0.001 M (ethylenedinitrilo) tetra acetic acid, ph 7.2 was prepared.
as §3

Acid phosphatase [7] = assay: Lysosomal free acid phosphatase activity, PMNs; format: cell-based; conditions: 5 μmoles, in vitro; 60 min
Method: as §2, §3

cAMP levels in PMNs = assay: Cyclic-3',5'-adenosine monophosphate levels (cAMP) in PMNs; format: cell-based; conditions: 1 h
Method: as §2
Isolated PMNs were incubated with test drugs at 5μ moles for 1 hr at 37° C. in MEM at pH 7.4. The reaction was stopped with 6% trichloroacetic acid. The cyclic-3',5'-adenosine monophosphate levels were determined by the radioimmunoassay of Gilman, Proc. Natl. Acad. Sci. (USA), 67, 305 (1970), using 3H(G)-cyclic-3',5'-adenosine monophosphate (39.8 Cu/m mol). Results were calculated in p mole/10^7 PMNs cells.

Acid phosphatase [8] = assay: Lysosomal free acid phosphatase activity, liver homogenate; format: biochemical, rats; conditions: 5 μmoles, in vitro; 20 min
Method: as §4, §3

[9] = pH 7.4, 5 μmoles, in vitro, read-out: PMNs cAMP Level

Row | Compound | Oxidative Phosphorylation Succinate State 3 (liver mitochondria [1]) [% Control] | Oxidative Phosphorylation Succinate State 4 (liver mitochondria [1]) [% Control] | Writhing Reflex (CF1 male mice) [% Control] | Oxidative Phosphorylation α Ketoglutarate State 3 (liver mitochondria [2]) [% Control] | Oxidative Phosphorylation α Ketoglutarate State 4 (liver mitochondria [2]) [% Control] | LD50 (in vivo) [mg/kg] | inhibition of PMN cathepsin activity (Cathepsin [3]) | PMNs % Free Cathespin Activity, pH5 (Cathepsin [3]) [% Control] | Anti-inflammatory Screen ([4]; 10 mg/kg × 2 intraperitoneally) [% Control] | activity at 1 µM [5] [%] | Liver % Free Cathepsin Activity, pH5 (Cathepsin [6]) [% Control] | PMNs % Free Acid Phosphatase Activity, pH5 (Acid phosphatase [7]) [% Control] | activity at 5 µmol (cAMP levels in PMNs; pH 7.4, read-out: PMNs cAMP Level) [%] | Liver % Free Acid Phosphatase Activity, pH5 (Acid phosphatase [8]) [% Control] | Anti-inflammatory Screen ([4]; 1/3 dose (of 10 mg/kg × 2)) [% Control] | activity at 5 µmol (cAMP levels in PMNs; [9]) [%] | uncoupling with α-ketoglutarate as substrate (liver mitochondria [2]) | inhibition of the carrageenan induced edema in mouse foot pads ([4]; text summary of Table II) | inhibition of the writhing reflex (CF1 male mice; text summary of Table II) [%]
1 | CCOC(=O)[BH2-][N+](C)(C)C [XVIII, (CH3)3 N.BH2 COOCH2 CH3] | 61 ± 19 | 119 ± 18 | 106 | 54 ± 8 | 126 ± 51 | > 500 | at least 82% | 16 ± 3 | 87 | – | – | – | – | – | – | – | – | – | –
2 | O=C(O)[BH2-][n+]1ccccc1 [XVI, Pyridine-carboxyborane] | 75 ± 15 | 110 ± 13 | 53 | 63 ± 15 | 109 ± 30 | – | – | 31 ± 4 | – | 76 ± 5 | 58 ± 4 | 100 ± 5 | 100 | 77 ± 8 | 74 | – | – | – | –
3 | [BH3-][NH2+]C(C)(C)C [Compound I, (CH3)3 CNH2.BH3] | 63 ± 8 | 118 ± 11 | – | 63 ± 14 | 160 ± 35 | 16 | – | 100 ± 4 | 41 | 100 ± 3 | 58 ± 5 | 100 ± 9 | – | 77 ± 4 | – | 58 | uncoupling | at least 50% | –
4 | CCNC(=O)[BH2-][N+](C)(C)C [VII, (CH3)3 N.BH2 CON(H)CH2 CH3] | 74 ± 9 | 114 ± 13 | 29 | 45 ± 18 | 113 ± 37 | 320 | – | 22 ± 5 | 63 | 100 ± 7 | – | 100 ± 2 | – | 78 ± 7 | – | 98 | uncoupling | – | 70
